Results published in patent US5856356A, “Use of strontium salts and pharmaceutical compositions thereof for the treatment of arthrosis” (Adir et Compagnie, priority 1996, dated 1999).

Test system: human chondrocytes

[Cl-].[Cl-].[Sr+2] [SrCl2, strontium chloride]
production of sulfated glycoseaminoglycans (24 hours, concentration printed "210^-3 M", control 43 871 ± 1124, p < 0.05): 52 839 c.p.m./10^6 cells
effect on the synthesis of proteoglycans / stimulation of the chondroformation (in words) (human chondrocytes, same effects as compound A): exhibits the same effects
